One experiment addresses cdk4/D (Homo sapiens, UniProt P11802). Nature of the experiment: Cyclin-Dependent Kinase 4 (cdk4) Assay. The experiment is classed as biochemical. Particulars: read-out: cdk4/D IC50.
The target of the next experiment is Cdk5/p25 (Homo sapiens, UniProt Q00535). Nature of the experiment: Cyclin-Dependent Kinase 5 High Throughput Screening (cdk5-HTS) Assay. The experiment is classed as biochemical. Particulars: high throughput screen. In outline:
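Cdk5/p25 (1.0 μg/mL) phosphorylates GST-RbCOOH (20 μg/mL) in 50 mM Tris pH 7.4 with 10 mM MgCl2 and 20 μM ATP spiked with [γ33P]ATP, 30 min at room temperature. After EDTA stop, substrate captured on glutathione-coated plates; 33P incorporation counted by scintillation; IC50 determined.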

A further experiment deals with cdk2/cyclinE (Homo sapiens, UniProt P24941). Nature of the experiment: Cyclin-Dependent Kinase Assay cdk2/cyclinE. Particulars: cdk2/E IC50.
The target in a further experiment is cdk2/cyclinA (Homo sapiens, UniProt P24941). The experiment can be described thus: Cyclin-Dependent Kinase Assay cdk2/cyclinA. Particulars: cdk2/A IC50.
For a further experiment, the target named is cdc2/cyclinB (Homo sapiens, UniProt P06493). The experiment can be described thus: Cyclin-Dependent Kinase Assay cdc2/cyclinB.
Chain of cdc2/cyclinB (P06493 whole entry): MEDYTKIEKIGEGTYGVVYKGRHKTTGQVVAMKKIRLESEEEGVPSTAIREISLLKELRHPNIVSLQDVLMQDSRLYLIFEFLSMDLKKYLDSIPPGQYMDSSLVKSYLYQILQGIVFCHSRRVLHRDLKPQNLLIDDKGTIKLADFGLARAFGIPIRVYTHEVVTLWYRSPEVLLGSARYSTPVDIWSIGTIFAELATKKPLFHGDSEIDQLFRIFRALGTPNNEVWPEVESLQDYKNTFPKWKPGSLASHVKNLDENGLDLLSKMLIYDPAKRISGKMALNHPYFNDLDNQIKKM
Chain of cdc2/cyclinB (P14635 whole entry, further chain): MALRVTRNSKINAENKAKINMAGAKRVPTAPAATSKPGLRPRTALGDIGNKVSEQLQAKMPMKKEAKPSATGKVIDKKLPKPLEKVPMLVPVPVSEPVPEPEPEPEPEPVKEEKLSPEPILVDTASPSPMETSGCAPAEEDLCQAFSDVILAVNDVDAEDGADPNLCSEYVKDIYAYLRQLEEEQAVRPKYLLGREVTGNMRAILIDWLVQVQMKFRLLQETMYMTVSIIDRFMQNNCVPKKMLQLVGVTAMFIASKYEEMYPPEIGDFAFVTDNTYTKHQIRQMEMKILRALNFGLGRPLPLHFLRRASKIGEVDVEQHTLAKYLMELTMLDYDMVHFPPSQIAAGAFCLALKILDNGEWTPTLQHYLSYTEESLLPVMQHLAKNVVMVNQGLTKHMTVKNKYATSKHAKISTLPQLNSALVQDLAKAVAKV

pIC50: −log10 of the molar value.

Chain of cdk4/D (P11802 whole entry): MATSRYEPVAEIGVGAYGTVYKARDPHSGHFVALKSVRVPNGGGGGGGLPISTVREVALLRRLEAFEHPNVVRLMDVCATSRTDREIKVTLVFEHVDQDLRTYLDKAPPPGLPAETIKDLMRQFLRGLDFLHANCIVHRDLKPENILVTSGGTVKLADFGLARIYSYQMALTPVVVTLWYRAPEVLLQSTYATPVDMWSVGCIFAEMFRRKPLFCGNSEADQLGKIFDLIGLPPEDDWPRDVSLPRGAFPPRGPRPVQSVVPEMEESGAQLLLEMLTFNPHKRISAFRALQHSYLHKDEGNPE
Chain of cdk4/D (P24385 whole entry, further chain): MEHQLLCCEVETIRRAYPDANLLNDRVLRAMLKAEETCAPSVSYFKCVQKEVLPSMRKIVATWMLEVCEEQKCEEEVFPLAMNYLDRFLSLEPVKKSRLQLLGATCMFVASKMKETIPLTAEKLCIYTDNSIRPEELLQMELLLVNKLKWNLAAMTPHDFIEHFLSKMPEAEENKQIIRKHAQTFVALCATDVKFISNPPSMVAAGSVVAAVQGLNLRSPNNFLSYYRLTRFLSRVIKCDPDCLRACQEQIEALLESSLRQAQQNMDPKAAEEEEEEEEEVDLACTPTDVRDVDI
Experimental for cdc2/cyclinB: Cyclin-Dependent Kinase Assays (cdk2/cyclinE, cdk2/cyclinA, cdc2/cyclinB)
All components except the ATP were added to the wells, and the plate was placed on a plate mixer for 2 minutes. The reaction was begun by addition of [^32P]ATP, and the plate was incubated at 25° C. for 15 minutes. The reaction was terminated by addition of 0.1 mL of 20% TCA. The plate was kept at 4° C. for at least 1 hour to allow the substrate to precipitate. The wells were then washed five times with 0.2 mL of 10% TCA and ^32p incorporation determined with a beta plate counter (Wallac Inc., Gaithersburg, Md.).

On to `CCn1c(=O)ccc2cnc(Nc3ccc(O)c(Cl)c3)nc21` [Example 290, 2-(3-Chloro-4-hydroxy-phenylamino)-8-ethyl-8H1-pyrido[2,3-d]pyrimidin-7-one], for which the pIC50 is 5.77 on cdk4/D; 6.61 at Cdk5/p25; 6.74 on cdk2/cyclinE; 6.37 against cdk2/cyclinA; 6.78 against cdc2/cyclinB.
For `CCn1c(=O)ccc2cnc(Nc3cc(Cl)c(O)c(Cl)c3)nc21` [Example 291, 2-(3,5-Dichloro-4-hydroxy-phenylamino)-8-ethyl-8H-pyrido[2,3-d]pyrimidin-7-one] the same measures were 5.69, 6.35, 6.35, 6.10 and 6.36.
The matching figures for `CCn1c(=O)ccc2cnc(Nc3ccc(F)c(C(F)(F)F)c3)nc21` [Example 293, 8-Ethyl-2-(4-fluoro-3-trifluoromethyl-phenylamino)-8H-pyrido[2,3-d]pyrimidin-7-one]: 5.70, 7.40, 6.60, 5.82 and 6.37.
The matching figures for `CCn1c(=O)ccc2cnc(Nc3ccc(F)c(C)c3)nc21` [Example 294, 8-Ethyl-2-(4-fluoro-3-methyl-phenylamino)-8H-pyrido[2,3-d]pyrimidin-7-one]: 6.39, 7.37, 6.89, 6.19 and 6.68.
For `CCn1c(=O)ccc2cnc(Nc3ccc(S(N)(=O)=O)cc3)nc21` [Example 295, 4-(8-Ethyl-7-oxo-7,8-dihydro-pyrido[2,3-d]pyrimidin-2-ylamino)-benzenesulfonamide], the pIC50 on cdk4/D is 6.02; against Cdk5/p25, 7.19; on cdk2/cyclinE it was 7.24; against cdk2/cyclinA, 6.89; at cdc2/cyclinB, 6.41.
In the case of `CCn1c(=O)ccc2cnc(Nc3cc(OC)cc(C(F)(F)F)c3)nc21` [Example 300, 8-Ethyl-2-(3-methoxy-5-trifluoromethyl-phenylamino)-8H-pyrido[2,3-d]pyrimidin-7-one], the pIC50 at cdk4/D is 5.55; at Cdk5/p25, 6.37; on cdk2/cyclinE, 6.02; on cdk2/cyclinA it was 5.41; at cdc2/cyclinB, 6.21.
The matching figures for `CCn1c(=O)ccc2cnc(Nc3ccc(F)c(F)c3)nc21` [Example 301, 2-(3,4-Difluoro-phenylamino)-8-ethyl-8H-pyrido[2,3-d]pyrimidin-7-one]: 6.85, 6.92, 6.49, 6.08 and 6.22.
For `CCn1c(=O)ccc2cnc(Nc3ccc(C#N)cc3)nc21` [Example 304, 4-(8-Ethyl-7-oxo-7,8-dihydro-pyrido[2,3-d]pyrimidin-2-ylamino)-benzonitrile] the same measures were 5.54, 6.01, 5.80, 5.82 and 5.66.
For `CCCn1c(=O)ccc2cnc(Nc3ccccc3)nc21` [Example 309, 2-Phenylamino-8-propyl-8H-pyrido[2,3-d]pyrimidin-7-one] the same measures were 6.45, 6.84, 6.80, 6.38 and 6.37.
For `CCCn1c(=O)ccc2cnc(Nc3ccc(OC)c(Cl)c3)nc21` [Example 310, 2-(3-Chloro-4-methoxy-phenylamino)-8-propyl-8H-pyrido[2,3-d]pyrimidin-7-one], the pIC50 at cdk4/D was 6.31; on Cdk5/p25 it was 7.16; at cdk2/cyclinE it was 6.86; on cdk2/cyclinA it was 6.48; against cdc2/cyclinB, 6.67.
For `CCCn1c(=O)ccc2cnc(Nc3cccc(C(F)(F)F)c3)nc21` [Example 313, 8-Propyl-2-(3-trifluoromethyl-phenylamino)-8H-pyrido[2,3-d]pyrimidin-7-one] the same measures were 5.52, 6.51, 6.48, 5.83 and 6.44.
The matching figures for `CCCn1c(=O)ccc2cnc(Nc3ccc(Br)c(C(F)(F)F)c3)nc21` [Example 314, 2-(4-Bromo-3-trifluoromethyl-phenylamino)-8-propyl-8H-pyrido[2,3-d]pyrimidin-7-one]: 5.67, 6.94, 6.28, 5.62 and 6.37.
The matching figures for `CCCn1c(=O)ccc2cnc(Nc3cccc(I)c3)nc21` [Example 316, 2-(3-Iodo-phenylamino)-8-propyl-8H-pyrido[2,3-d]pyrimidin-7-one]: 6.31, 7.25, 7.20, 6.53 and 7.03.
For `CCCn1c(=O)ccc2cnc(Nc3ccc(S(N)(=O)=O)cc3)nc21` [Example 317, 4-(7-Oxo-8-propyl-7,8-dihydro-pyrido[2,3-d]pyrimidin-2-ylamino)-benzenesulfonamide], the pIC50 is 6.01 at cdk4/D; 7.37 against Cdk5/p25; 7.50 against cdk2/cyclinE; 7.09 against cdk2/cyclinA; 7.05 on cdc2/cyclinB.
For `CCCn1c(=O)ccc2cnc(Nc3ccc(C)c(C)c3)nc21` [Example 318, 2-(3,4-Dimethyl-phenylamino)-8-propyl-8H-pyrido[2,3-d]pyrimidin-7-one] the same measures were 6.37, 7.16, 6.54, 5.89 and 6.67.
For `CCCn1c(=O)ccc2cnc(Nc3cc(Cl)cc(Cl)c3)nc21` [Example 319, 2-(3,5-Dichloro-phenylamino)-8-propyl-8H-pyrido[2,3-d]pyrimidin-7-one] the same measures were 5.81, 6.97, 6.79, 6.07 and 6.80.
For `CCCn1c(=O)ccc2cnc(Nc3ccc([N+](=O)[O-])cc3F)nc21` [Example 320, 2-(2-Fluoro-4-nitro-phenylamino)-8-propyl-8H-pyrido[2,3-d]pyrimidin-7-one] the same measures were 5.78, 6.43, 6.35, 5.58 and 6.17.
For the compound `CCCn1c(=O)ccc2cnc(Nc3ccc(F)cc3F)nc21` [Example 321, 2-(2,4-Difluoro-phenylamino)-8-propyl-8H-pyrido[2,3-d]pyrimidin-7-one], the pIC50 on cdk4/D is 5.44; on Cdk5/p25, 6.19; on cdk2/cyclinE, 5.95; on cdk2/cyclinA, 5.50; against cdc2/cyclinB, 5.91.
In the case of `CCCn1c(=O)ccc2cnc(Nc3ccc(C#N)cc3)nc21` [Example 322, 4-(7-Oxo-8-propyl-7,8-dihydro-pyrido[2,3-d]pyrimidin-2-ylamino)-benzonitrile], the pIC50 at cdk4/D is 6.20; against Cdk5/p25 it was 6.64; against cdk2/cyclinE it was 6.52; against cdk2/cyclinA it was 6.26; against cdc2/cyclinB, 6.22.
For `CCCn1c(=O)ccc2cnc(Nc3ccc4[nH]ccc4c3)nc21` [Example 323, 2-(1H-Indol-5-ylamino)-8-propyl-8H-pyrido[2,3-d]pyrimidin-7-one] the same measures were 7.15, 7.28, 7.06, 6.60 and 7.09.
`CCCn1c(=O)ccc2cnc(Nc3ccc4[nH]ncc4c3)nc21` [Example 324, 2-(1H-Indazol-5-ylamino)-8-propyl-8H-pyrido[2,3-d]pyrimidin-7-one]: the pIC50 at cdk4/D is 6.67; against Cdk5/p25, 7.49; against cdk2/cyclinE it was 7.28; against cdk2/cyclinA, 6.84; against cdc2/cyclinB, 7.08.
On to `CCCn1c(=O)ccc2cnc(Nc3ccc4[nH]nnc4c3)nc21` [Example 325, 2-(1H-Benzotriazol-5-ylamino)-8-propyl-8H-pyrido[2,3-d]pyrimidin-7-one], for which the pIC50 on cdk4/D was 6.78; at Cdk5/p25, 7.40; at cdk2/cyclinE, 7.41; against cdk2/cyclinA, 6.90; on cdc2/cyclinB, 5.84.
For the compound `CCCn1c(=O)ccc2cnc(Nc3ccc(O)c(Cl)c3)nc21` [Example 327, 2-(3-Chloro-4-hydroxy-phenylamino)-8-propyl-8H-pyrido[2,3-d]pyrimidin-7-one], the pIC50 is 6.72 on cdk4/D; 7.51 at Cdk5/p25; 7.60 against cdk2/cyclinE; 7.17 on cdk2/cyclinA; 7.28 on cdc2/cyclinB.
For the compound `CCCn1c(=O)ccc2cnc(Nc3cc(Cl)c(O)c(Cl)c3)nc21` [Example 328, 2-(3,5-Dichloro-4-hydroxy-phenylamino)-8-propyl-8H-pyrido[2,3-d]pyrimidin-7-one], the pIC50 on cdk4/D was 6.16; at Cdk5/p25 it was 7.03; against cdk2/cyclinE it was 7.45; against cdk2/cyclinA, 7.12; on cdc2/cyclinB, 7.10.

Source of the values: patent US20040224958A1, “Pyridopyrimidinone derivatives for treatment of neurodegenerative disease” (priority 2000, published 2004).
